# Patent US20230132378A9, “COMPOSITIONS AND METHODS FOR TREATING HEMORRHAGIC STROKE” (UNM RAINFOREST INNOVATIONS, priority 2017, published 2023)
# How the values were obtained:
# [1] = test system: brain of permanent MCAO rat model; assay: ZnPP injection into brain parenchyma of MCAO or normal rats, T2-weighted MRI; format: in vivo; conditions: MCAO rats, ZnPP 10 μg/kg into brain parenchyma of ischemic side
# Experimental: All multimodal magnetic resonance imaging (MRI) of the rat was performed by using a 4.7-Tesla MRI scanner (Bruker Biospin, Billerica, Mass.), which was equipped with a 40-cm bore, a 660 mT/m (rise time within 120 μs) gradient and shim systems (Bruker Biospin, Billerica, Mass.). The rats were anaesthetized with 2% isoflurane (Clipper Distributing Company, LLC, St. Joseph, Mo.) during MRI. At the same time respiration and heart rate were monitored. The body temperature of the rats was maintained at 37.0° C.±0.5° C. The success of the intracerebral hemorrhage model and brain damage was estimated by T2-weighted images. T2-weighted images were acquired with a fast spin-echo sequence (rapid acquisition with relaxation enhancement (RARE)) (Repetition Time (TR)/Echo Time (TE)=5,000 ms/56 ms, Field of View (FOV)=4 cm×4 cm, slice thickness=1 mm, inter-slice distance=1.1 mm, number of slices=12, matrix=256×256, number of average=3).
# Middle cerebral artery occlusion (MCAO) surgery was used to induce focal cerebral ischemia through intraluminal filament methods as described previously (Zhao et al., 2014, Stroke 45:1139-1147). The animals underwent right MCAO for 24 hours. ZnPP (10 μg/kg) in […] or 5 μl saline was injected to 6.0 mm deep at 3.5 mm right of the bregma through a burr hole on normal or MCAO rat, 10 minutes after MCAO onset.
# primary neurons = assay: Cytotoxicity (Cytotox 96 LDH release) in primary neurons; format: cell-based; conditions: for neuron toxicity under hypoxia / cell death in normoxia: three-hour exposure; for neuron toxicity under hypoxia: 2.5-7.5 μM; for cell death in normoxia: any concentration tested
# heme oxygenase-1 (HO-1) = biological target: T1, heme oxygenase-1 (HO-1) (Homo sapiens, UniProt P09601); conditions: levels as low as; cited from earlier work
# T1 sequence (P09601 1-288): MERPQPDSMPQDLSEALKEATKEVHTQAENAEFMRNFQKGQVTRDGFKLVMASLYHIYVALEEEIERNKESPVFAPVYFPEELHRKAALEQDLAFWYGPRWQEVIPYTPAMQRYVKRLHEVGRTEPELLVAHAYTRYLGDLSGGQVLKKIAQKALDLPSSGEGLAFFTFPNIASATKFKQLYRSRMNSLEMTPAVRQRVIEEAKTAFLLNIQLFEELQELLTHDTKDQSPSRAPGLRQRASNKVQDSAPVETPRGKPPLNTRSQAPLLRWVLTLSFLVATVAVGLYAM
# primary astrocytes = assay: Cytotoxicity (Cytotox 96 LDH release) in primary astrocytes; format: cell-based; conditions: three-hour exposure, 5 and 7.5 μM
# Experimental: Astrocytic death rate was measured using Cytotox 96 nonradioactive cytotoxicity assay kit (Promega, Madison, Wis.), which quantitatively measures lactate dehydrogenase (LDH) release from dead cells. Astroytes (5×10^3 cells/well) were seeded into 96-well microtiter plates. Following three hours normoxia or hypoxia treatment, 50 μl of the reconstituted substrate mixture was added to each well of the plate. Thirty minutes later, 50 μl of the stop solution was added to each well, and the absorbance was measured at 490 nm in a microplate reader (Bio-Rad 3350, Bio-Rad Laboratories, Inc. Hercules, Calif.). Triton-X 100-treated cells were used as 100% cell death control. The cell death rate was calculated by using the formula: Cell death rate=(Experimental absorbance value−culture medium absorbance value)/(Triton-X 100-treated absorbance value−culture medium absorbance value).
# ICH-induced brain damage = assay: Brain damage by T2-weighted MRI after collagenase-induced ICH; format: in vivo, rat
# Experimental: (§1) The Laboratory Animal Care and Use Committee of the University of New Mexico approved all experimental protocols. The animals were used in compliance with the NIH Guide for Care and Use of Laboratory Animals. Male Sprague Dawley rats (Charles River Laboratories, Inc., Wilmington, Mass.) weighing 290 g to 320 g were anesthetized with isoflurane (5% for induction, 2% for maintenance) in N2O/O2 (70:30%) during surgical procedures, and the body temperature was maintained at 37.5° C.±0.5° C. using a heating pad. A small burr hole was made at 3.5 mm right of the bregma. 0.2 U collagenase (Sigma-Aldrich, St. Louis, Mo.) in 1 μl sterile saline was injected to 6.0 mm deep through the burr hole. The needle was removed at five minutes after collagenase injection to prevent backflow. A total of 49 rats were used in this study.
# All multimodal magnetic resonance imaging (MRI) of the rat was performed by using a 4.7-Tesla MRI scanner (Bruker Biospin, Billerica, Mass.), which was equipped with a 40-cm bore, a 660 mT/m (rise time within 120 μs) gradient and shim systems (Bruker Biospin, Billerica, Mass.). The rats were anaesthetized with 2% isoflurane (Clipper Distributing Company, LLC, St. Joseph, Mo.) during MRI. At the same time respiration and heart rate were monitored. The body temperature of the rats was maintained at 37.0° C.±0.5° C. […]
# [2] = test system: ZnPP generation in the hemorrhagic brain; assay: ZnPP autofluorescence imaging on hemorrhagic brain slices; format: in vivo, rat
# Experimental: as §1
# N,N,N′,N′-tetrakis-(2-Pyridylmethyl)ethylenediamine (TPEN, Sigma-Aldrich, St. Louis, Mo.) was dissolved in dimethyl sulfoxide (DMSO) to 25 mg/ml and then further diluted in physiological saline to a final concentration of 2.5 mg/ml. 10 mg/kg TPEN was intraperitoneal injected at one hour before collagenase injection. Saline with 10% DMSO was used as control.
# N-methyl protoporphyrin IX (Santa Cruz Biotechnology, Inc., Dallas, Tex.), a ferrochelatase inhibitor was dissolved in DMSO to 200 mg/ml and then further diluted in physiological saline to a final concentration of 20 mg/ml. […]
# [3] = test system: cell death in the hemorrhagic brain; assay: Brain cell death by TUNEL assay after collagenase-induced ICH; format: in vivo, rat
# Experimental: as §1, with “study. […]” for “study.”
# A standard terminal deoxynucleotidyl transferase—mediated dUTP nick-end labeling (TUNEL) procedure for frozen tissue sections was performed (Click-iT TUNEL Alexa Fluor 488 Imaging Assay kit (Thermo Fisher Scientific, Waltham, Mass.). Histological images were captured on a fluorescence microscope (Olympus IX71, Olympus Corp., Center Valley, Pa.) with a TRITC dichroic mirror.
# ferrochelatase = biological target: T2, ferrochelatase (Homo sapiens, UniProt P22830); conditions: cited from earlier work
# T2 sequence (P22830 55-423): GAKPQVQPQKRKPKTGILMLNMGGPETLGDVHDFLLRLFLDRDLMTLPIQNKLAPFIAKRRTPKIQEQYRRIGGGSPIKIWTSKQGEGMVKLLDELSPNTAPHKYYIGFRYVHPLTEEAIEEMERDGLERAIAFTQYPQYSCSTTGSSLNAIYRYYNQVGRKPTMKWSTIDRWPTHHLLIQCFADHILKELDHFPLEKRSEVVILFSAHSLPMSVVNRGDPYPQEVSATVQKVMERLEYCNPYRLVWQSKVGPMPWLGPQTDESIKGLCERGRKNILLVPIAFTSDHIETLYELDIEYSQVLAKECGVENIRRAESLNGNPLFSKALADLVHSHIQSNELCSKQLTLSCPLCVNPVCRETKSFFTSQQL
# [4] = test system: ZnPP in hemorrhagic hemisphere tissue; assay: Fluorescence spectrophotometry of ZnPP in brain tissue extract; format: in vivo, rat; conditions: TPEN pretreatment
# Experimental: as §1, with “study. […]” for “study.”
# The animals were euthanized at 24 hours after collagenase injection. […] After centrifugation at 13,000×g, the fluorescence intensity (excitation=416 nm, emission=588 nm) was determined using a SpectraMax M2 Multi-Mode Microplate Readers (Molecular Devices LLC, Sunnyvale, Calif.) as previously described (Nakamura et al., 2011. J Control Release 155(3):367-375. After being treated with heparin as an anti-coagulant, 50 μl blood was diluted in ethanol. Followed by centrifugation, the fluorescence intensity of ZnPP in the ethanol extract supernatant was measured.
# [5] = test system: labile zinc accumulation in brain tissue after hemorrhagic stroke; assay: Labile zinc staining (Fluozin-3) on brain slices after collagenase-induced ICH; format: in vivo, rat; conditions: rats pretreated with 10 mg/kg i.p. one hour before collagenase injection; versus saline control
# Experimental: as §1, with “study. […]” for “study.”
# To detect labile zinc in brain tissue, cryosections 16 μm thick were stained with the zinc-specific membrane-permeable fluorescent dyes Fluozin-3 (Invitrogen, Thermo Fisher Scientific, Carlsbad, Calif.). […] After washing in saline, images were acquired by a fluorescence microscope (Olympus IX71, Olympus Corp., Center Valley, Pa.) with a GFP dichroic mirror.
# whole rat blood = assay: ZnPP generation in whole blood with zinc under hypoxia; conditions: 100 μM zinc, hypoxia three hours, P=0.00096
# Experimental: The animals were euthanized at 24 hours after collagenase injection. The brains were harvested and cut into 2-mm thick coronal slice. The tissue with visible blood at the hemorrhagic hemisphere of each slice was collected. And the tissue at the corresponding location at the contralateral hemisphere was also collected. The tissue was homogenized on ice in ethanol. After centrifugation at 13,000×g, the fluorescence intensity (excitation=416 nm, emission=588 nm) was determined using a SpectraMax M2 Multi-Mode Microplate Readers (Molecular Devices LLC, Sunnyvale, Calif.) as previously described (Nakamura et al., 2011. J Control Release 155(3):367-375. After being treated with heparin as an anti-coagulant, 50 μl blood was diluted in ethanol. Followed by centrifugation, the fluorescence intensity of ZnPP in the ethanol extract supernatant was measured.
# Blood was drawn from normal Sprague Dawley rats. Blood was subjected to hypoxia by incubating in a humidified airtight chamber (Billups-Rothenberg, Inc., San Diego, Calif.) equipped with an air lock and flushed with 95% N2/5% CO2 for 15 minutes. Then the chamber was scaled and kept at 37° C. for three hours.
compound,measurement,setting,value
"C=CC1=C(C)c2cc3[n-]c(cc4nc(cc5[n-]c(cc1n2)c(C)c5C=C)C(C)=C4CCC(=O)O)c(CCC(=O)O)c3C.[Zn+2] [ZnPP, zinc protoporphyrin]",brain damage area on T2-weighted MRI after ZnPP injection,[1],significantly increased
same,neuron toxicity under hypoxia,primary neurons; hypoxia,significant dose-dependent increases
same,toxicity in hypoxia compared with hemin (neurons),"primary neurons; hypoxia, 2.5 μM P=0.0092, 5 μM P=0.0046, 7.5 μM P=0.0059",greater than that of hemin
same,cell death in normoxia,primary neurons,Neither ZnPP nor hemin induced significant cell death
same,level significantly decreasing HO-1 activity,heme oxygenase-1 (HO-1),0.15
same,astrocyte toxicity in hypoxia,primary astrocytes,dose dependent increase in toxicity
hemin,neuron toxicity under hypoxia,primary neurons; hypoxia,significant dose-dependent increases
same,cell death in normoxia,primary neurons,Neither ZnPP nor hemin induced significant cell death
same,astrocyte toxicity in hypoxia,primary astrocytes,did not
N-methyl protoporphyrin IX [N-methyl PP],brain damage in ICH by T2-weighted MRI,"ICH-induced brain damage; N-methyl PP pretreatment one hour before collagenase-induced ICH, P=0.043",significantly reduced
same,reduction of ZnPP fluorescence in brain tissue versus no treatment,"[2]; N-methyl PP 100 mg/kg i.p. one hour before ICH induction, P=0.0037",about two thirds
same,number of TUNEL positive cells relative to saline treated control group,"[3]; N-methyl PP 100 mg/kg i.p. pretreatment, P=0.000039",14%
same,inhibition of ferrochelatase,ferrochelatase,potently inhibited
"c1ccc(CN(CCN(Cc2ccccn2)Cc2ccccn2)Cc2ccccn2)nc1 [TPEN, N,N,N′,N′-tetrakis-(2-Pyridylmethyl)ethylenediamine]",hyperintense lesion on T2-weighted MRI (brain damage),"ICH-induced brain damage; TPEN pretreatment, 24 hours after collagenase-induced ICH",significantly reduced
same,ZnPP fluorescence on brain slices,"[2]; TPEN pretreatment, 24 hours after collagenase injection, P=0.0034",significantly decreased
same,ZnPP formed at the hemorrhagic hemisphere (fluorescence intensity at 588 nm),[4],significantly reduced
same,TUNEL signal (cell death) at edge of hemorrhagic area,[3]; TPEN 10 mg/kg i.p. one hour before collagenase injection,markedly decreased
same,zinc fluorescence signal (Fluozin-3) around hemorrhagic area,[5],significantly reduced
same,zinc-induced ZnPP generation in hypoxic blood,whole rat blood,decreased
